Mutagenic call data for four compounds are collected here from PubChem BioAssay AID1259407 (Chemical Carcinogenesis Research Information System (CCRIS), 2018).

The subject of the data set is CCRIS mutagenicity, Ames/micronucleus/aberration tests. Put plainly: CCRIS mutagenicity studies.
Setting [1] is: Test System: AMES SALMONELLA TYPHIMURIUM, Strain/Indicator: TA98, Metabolic Activation: NONE, Method: STANDARD PLATE.
Where [2] appears, read: Test System: AMES SALMONELLA TYPHIMURIUM, Strain/Indicator: TA98, Metabolic Activation: RAT, LIVER, S-9, AROCLOR 1254, Method: STANDARD PLATE.
[3] abbreviates: Test System: AMES SALMONELLA TYPHIMURIUM, Strain/Indicator: TA1538, Metabolic Activation: NONE, Method: STANDARD PLATE.
[4] abbreviates: Test System: AMES SALMONELLA TYPHIMURIUM, Strain/Indicator: TA1538, Metabolic Activation: RAT, LIVER, S-9, AROCLOR 1254, Method: STANDARD PLATE.

The source made the active and inactive calls. How the calls were made is not given here.

For `O=C(OOC(=O)c1ccccc1)c1ccccc1`, the mutagenic call runs as follows: (Test System: AMES SALMONELLA TYPHIMURIUM, Strain/Indicator: TA97, Metabolic Activation: HAMSTER, LIVER, S-9, AROCLOR 1254 (10 OR 30%), Method: PREINCUBATION) “inactive; negative”; (Test System: AMES SALMONELLA TYPHIMURIUM, Strain/Indicator: TA97, Metabolic Activation: NONE, Method: PREINCUBATION) “inactive; negative”; (Test System: AMES SALMONELLA TYPHIMURIUM, Strain/Indicator: TA97, Metabolic Activation: RAT, LIVER, S-9, AROCLOR 1254 (10 OR 30%), Method: PREINCUBATION) “inactive; negative”; (Test System: AMES SALMONELLA TYPHIMURIUM, Strain/Indicator: TA97, Metabolic Activation: RAT, LIVER, S-9, AROCLOR 1254, Method: PREINCUBATION) “inactive; negative”; (Test System: AMES SALMONELLA TYPHIMURIUM, Strain/Indicator: TA97A, Metabolic Activation: NONE, Method: PREINCUBATION) “inactive; negative”; (Test System: AMES SALMONELLA TYPHIMURIUM, Strain/Indicator: TA97A, Metabolic Activation: RAT LIVER S-9, AROCLOR 1254, Method: PREINCUBATION) “inactive; negative”. Moreover, the mutagenic call was “inactive; negative” (Test System: AMES SALMONELLA TYPHIMURIUM, Strain/Indicator: TA98, Metabolic Activation: HAMSTER, LIVER, S-9, AROCLOR 1254 (10 OR 30%), Method: PREINCUBATION); “inactive; negative” (Test System: AMES SALMONELLA TYPHIMURIUM, Strain/Indicator: TA98, Metabolic Activation: NONE, Method: PREINCUBATION); “inactive; negative” (Test System: AMES SALMONELLA TYPHIMURIUM, Strain/Indicator: TA98, Metabolic Activation: RAT LIVER S-9, PHENOBARBITAL AND BETA-NAPHTHOFLAVONE, Method: PREINCUBATION); “inactive; negative” (Test System: AMES SALMONELLA TYPHIMURIUM, Strain/Indicator: TA98, Metabolic Activation: RAT, LIVER, S-9, AROCLOR 1254 (10 OR 30%), Method: PREINCUBATION); “inactive; negative” (Test System: AMES SALMONELLA TYPHIMURIUM, Strain/Indicator: TA100, Metabolic Activation: HAMSTER, LIVER, S-9, AROCLOR 1254 (10 OR 30%), Method: PREINCUBATION); “inactive; negative” (Test System: AMES SALMONELLA TYPHIMURIUM, Strain/Indicator: TA100, Metabolic Activation: NONE, Method: PREINCUBATION). Further, the mutagenic call (Test System: AMES SALMONELLA TYPHIMURIUM, Strain/Indicator: TA100, Metabolic Activation: RAT LIVER S-9, AROCLOR 1254, Method: PREINCUBATION) is “inactive; negative”; the mutagenic call (Test System: AMES SALMONELLA TYPHIMURIUM, Strain/Indicator: TA100, Metabolic Activation: RAT LIVER S-9, PHENOBARBITAL AND BETA-NAPHTHOFLAVONE, Method: PREINCUBATION) is “inactive; negative”; the mutagenic call (Test System: AMES SALMONELLA TYPHIMURIUM, Strain/Indicator: TA100, Metabolic Activation: RAT, LIVER, S-9, AROCLOR 1254 (10 OR 30%), Method: PREINCUBATION) was “inactive; negative”; the mutagenic call (Test System: AMES SALMONELLA TYPHIMURIUM, Strain/Indicator: TA102, Metabolic Activation: NONE, Method: PREINCUBATION) is “inactive; negative”; the mutagenic call (Test System: AMES SALMONELLA TYPHIMURIUM, Strain/Indicator: TA102, Metabolic Activation: RAT LIVER S-9, AROCLOR 1254, Method: PREINCUBATION) is “inactive; negative”; the mutagenic call (Test System: AMES SALMONELLA TYPHIMURIUM, Strain/Indicator: TA102, Metabolic Activation: RAT, LIVER, S-9, AROCLOR 1254, Method: PREINCUBATION) was “inactive; negative”. The mutagenic call by setting is: (Test System: AMES SALMONELLA TYPHIMURIUM, Strain/Indicator: TA104, Metabolic Activation: NONE, Method: PREINCUBATION) “inactive; negative”; (Test System: AMES SALMONELLA TYPHIMURIUM, Strain/Indicator: TA104, Metabolic Activation: RAT LIVER S-9, AROCLOR 1254, Method: PREINCUBATION) “inactive; negative”; (Test System: AMES SALMONELLA TYPHIMURIUM, Strain/Indicator: TA1535, Metabolic Activation: HAMSTER, LIVER, S-9, AROCLOR 1254 (10 OR 30%), Method: PREINCUBATION) “inactive; negative”; (Test System: AMES SALMONELLA TYPHIMURIUM, Strain/Indicator: TA1535, Metabolic Activation: NONE, Method: PREINCUBATION) “inactive; negative”; (Test System: AMES SALMONELLA TYPHIMURIUM, Strain/Indicator: TA1535, Metabolic Activation: RAT LIVER S-9, PHENOBARBITAL AND BETA-NAPHTHOFLAVONE, Method: PREINCUBATION) “inactive; negative”; (Test System: AMES SALMONELLA TYPHIMURIUM, Strain/Indicator: TA1535, Metabolic Activation: RAT, LIVER, S-9, AROCLOR 1254 (10 OR 30%), Method: PREINCUBATION) “inactive; negative”. In addition, the mutagenic call (Test System: AMES SALMONELLA TYPHIMURIUM, Strain/Indicator: TA1537, Metabolic Activation: NONE, Method: PREINCUBATION) is “inactive; negative”; the mutagenic call (Test System: AMES SALMONELLA TYPHIMURIUM, Strain/Indicator: TA1537, Metabolic Activation: RAT LIVER S-9, PHENOBARBITAL AND BETA-NAPHTHOFLAVONE, Method: PREINCUBATION) is “inactive; negative”; the mutagenic call (Test System: E.COLI, Strain/Indicator: WP2UVRA/PKM101, Metabolic Activation: NONE, Method: PREINCUBATION) was “inactive; negative”; the mutagenic call (Test System: E.COLI, Strain/Indicator: WP2UVRA/PKM101, Metabolic Activation: RAT LIVER S-9, PHENOBARBITAL AND BETA-NAPHTHOFLAVONE, Method: PREINCUBATION) was “inactive; negative”.
`O=C(O)C[C@H](NC(=O)COc1cc(Cl)c(Cl)cc1Cl)C(=O)O`: the mutagenic call reads like this: (Test System: AMES SALMONELLA TYPHIMURIUM, Strain/Indicator: TA97, Metabolic Activation: NONE, Method: STANDARD PLATE) “inactive; negative”; (Test System: AMES SALMONELLA TYPHIMURIUM, Strain/Indicator: TA97, Metabolic Activation: RAT, LIVER, S-9, AROCLOR 1254, Method: STANDARD PLATE) “inactive; negative”; under setting [1], “inactive; negative”; under setting [2], “inactive; negative”; (Test System: AMES SALMONELLA TYPHIMURIUM, Strain/Indicator: TA100, Metabolic Activation: NONE, Method: STANDARD PLATE) “inactive; negative”; (Test System: AMES SALMONELLA TYPHIMURIUM, Strain/Indicator: TA100, Metabolic Activation: RAT, LIVER, S-9, AROCLOR 1254, Method: STANDARD PLATE) “inactive; negative”. The mutagenic call was “inactive; negative” (Test System: AMES SALMONELLA TYPHIMURIUM, Strain/Indicator: TA1535, Metabolic Activation: NONE, Method: STANDARD PLATE); “inactive; negative” (Test System: AMES SALMONELLA TYPHIMURIUM, Strain/Indicator: TA1535, Metabolic Activation: RAT, LIVER, S-9, AROCLOR 1254, Method: STANDARD PLATE); “inactive; negative” under setting [3]; “inactive; negative” under setting [4].
Consider `COc1cc([C@@H]2c3cc4c(cc3[C@@H](O[C@@H]3O[C@@H]5CO[C@@H](c6cccs6)O[C@H]5[C@H](O)[C@H]3O)[C@H]3COC(=O)[C@H]23)OCO4)cc(OC)c1O`, for which the mutagenic call reads like this: (Test System: MOUSE LYMPHOMA, Strain/Indicator: L5178Y (HPRT)/6-THIOGUANINE, Metabolic Activation: NONE, Method: FLUCTUATION TEST) “inactive; negative”; (Test System: MOUSE LYMPHOMA, Strain/Indicator: L5178Y (TK+/TK-), Metabolic Activation: NONE) “active; positive”; (Test System: MOUSE LYMPHOMA, Strain/Indicator: L5178Y (TK+/TK-), Metabolic Activation: NONE, Method: FLUCTUATION TEST) “active; positive”; (Test System: MOUSE LYMPHOMA, Strain/Indicator: L5178Y (TK+/TK-), Metabolic Activation: NONE, Method: SUSPENSION/PLATE) “active; positive”.
With `O=CN(O)c1ccc([N+](=O)[O-])cc1`, the mutagenic call reads like this: (Test System: AMES SALMONELLA TYPHIMURIUM, Strain/Indicator: TA98(NR), Metabolic Activation: NONE, Method: STANDARD PLATE) “active; positive”; (Test System: AMES SALMONELLA TYPHIMURIUM, Strain/Indicator: TA98(NR), Metabolic Activation: RAT, LIVER, S-9, AROCLOR 1254, Method: STANDARD PLATE) “active; positive”; under setting [1], “active; positive”; under setting [2], “active; positive”; (Test System: AMES SALMONELLA TYPHIMURIUM, Strain/Indicator: TA1538(NR), Metabolic Activation: NONE, Method: STANDARD PLATE) “active; positive”; (Test System: AMES SALMONELLA TYPHIMURIUM, Strain/Indicator: TA1538(NR), Metabolic Activation: RAT, LIVER, S-9, AROCLOR 1254, Method: STANDARD PLATE) “active; positive”. For the same compound, the mutagenic call was “active; positive” under setting [3] and “active; positive” under setting [4].
